We go through one compound from patent US8592581B2, “Trisubstituted purine derivatives” (Cyclacel Limited, priority 2007, dated 2013).

Series [1] concerns the target T1, CYP2C9 (Homo sapiens (Human), UniProt P11712). The experiment in a line: CYP2C9 inhibition, human liver microsomes, tolbutamide. It is filed as in vitro ADME. How it is done:
Six test compound concentrations (0.05, 0.25, 0.5, 2.5, 5, 25 μM in DMSO; final DMSO concentration=0.25%) were incubated with human liver microsomes (1 mg/mL) and NADPH (1 mM) in the presence of the probe substrate tolbutamide (120 μM) for 60 min at 37° C. The selective CYP2C9 inhibitor, sulphaphenazole, was screened alongside the test compounds as a positive control.
(§1) For the CYP1A incubations, the reactions were terminated by the addition of methanol, and the formation of the metabolite, resorufin, was monitored by fluorescence (excitation wavelength=535 nm, emission wavelength=595 nm). For the CYP2C9, CYP2C19, CYP2D6, and CYP3A4 incubations, the reactions were terminated by the addition of methanol containing internal standard. The samples were then centrifuged, and the supernatants were combined, for the simultaneous analysis of 4-hydroxytolbutamide, 4-hydroxymephenyloin, dextrorphan, and 1-hydroxymidazolam plus internal standard by LC-MS/MS using generic LC-MS/MS conditions. Formic acid in deionised water (final concentration=0.1%) was added to the final sample prior to analysis.
(In general: Liver microsomes are vesicles of endoplasmic reticulum, rich in cytochrome P450 enzymes.)

A further series has as its system NCI-H460. The experiment in a line: Alamar blue cytotoxicity assay NCI-H460. It is filed as cell-based. Conditions: Homo sapiens, 72 hours, read-out: cellular cytotoxicity IC50 NCI-H460. On the procedure:
(§2) In order to determine the cellular potency of the compounds, the cytotoxicity of each compound was determined against a range of cell lines. Standard cytotoxicity methods were performed as follows: cells were seeded in 96-well plates appropriately for their doubling time (2-5000 cells per well) in RPMI or DMEM media containing 10% FCS and incubated overnight at 37° C., 5% CO2. The media was removed and 100 μl fresh media containing increasing concentrations of appropriate compound was added and the cells incubated for 72 hours at 37° C., 5% CO2. A 10% stock of alamar blue (Roche, Lewes, United Kingdom) was prepared in medium and 100 μl added to the cells which were incubated for 2 hours. Absorbance was measured on the Wallac Victor 2 1420 multi-label counter at 544-595 nm.
(Resazurin is reduced to fluorescent resorufin, in cell work by metabolically active cells.)

For another series, the target named is CDK2/cyclin A (Homo sapiens (Human), UniProt P24941). The series can be described thus: In-vitro recombinant kinase assay CDK2/cyclin A. It is filed as biochemical. The conditions noted are these: Table 2; average of duplicate points; read-out: CDK2/Cyclin A Average IC50. On the procedure:
(§3) To evaluate the in-vitro kinase potency of the compounds, they were screened against CDK 2 and CDK9. Kinase assays were performed in 96-well plates using recombinant CDK/cyclins generated at Cyclacel. Ltd Dundee, UK. CDK2 and CDK9 assays were performed in a total volume of 25 μl in assay buffer (25 mM b-glycerophosphate, 20 mM MOPS, 5 mM EGTA, 1 mM DTT and 1 mM NaVO3, pH 7.4), into which were added 2-4 μg of active enzyme with appropriate substrates (purified histone H1 for CDK2/cyclin E, and CDK2/cyclin A, biotinyl-Ahx-(YSPTSPS)4 for CDK9/cyclin T1). […] CDK2 reactions were stopped by addition of 25 μl of 75 mM phosphoric acid, followed by filtration through P81 filterplates (Whatman Polyfiltronics, Kent, UK). For CDK9, the reaction was stopped by addition of 25 μl of 75 mM phosphoric acid, then 5 μl of 10 mg/ml avidin was added to each well and further incubated for 2 min followed by filtration as per CDK2 assay. After washing 3 times with 75 mM orthophosphoric acid, plates were dried, scintillant added and incorporated radioactivity measured in a scintillation counter (TopCount, Packard Instruments, Pangbourne, Berks, UK). Compounds for kinase assay were made up as 10 mM stocks in DMSO and diluted into 10% DMSO in assay buffer.
as §3

The next series has as its system MCF7. The series can be described thus: Alamar blue cytotoxicity assay MCF7. It is filed as cell-based. Conditions: Homo sapiens, 72 hours, read-out: cellular cytotoxicity IC50 MCF7. On the procedure: as §2
The test system of the next series is MDA-MB-436. The experiment in a line: Alamar blue cytotoxicity assay MDA-MB-436. It is filed as cell-based. The conditions noted are these: Homo sapiens, 72 hours, read-out: cellular cytotoxicity IC50 MDA-MB-436. On the procedure: as §2
A further series deals with H292. The experiment in a line: Alamar blue cytotoxicity assay H292. It is filed as cell-based. The conditions noted are these: Homo sapiens, NCI-H292; 72 hours; read-out: cellular cytotoxicity IC50 H292. How it is done:
as §2

Series [2] deals with T1, CYP2C9. The experiment in a line: Cytochrome P450 substrate identification (Bactosomes) CYP2C9. Format: in vitro ADME. The conditions noted are these: pH 7.4, 5 μM test compound, up to 45 min, read-out: half life in the presence of CYP2C9. How it is done: cDNA expressed human CYP450 enzyme preparations co-expressed with human NADPH cytochrome P450 reductase (Bactosomes™) were supplied by Cypex Ltd. Bactosomes™ (final P450 concentration CYP1A2 100 pmol/mL, CYP2C8 50 pmol/mL, CYP2C9 25 pmol/mL, CYP2C19 100 pmol/mL, CYP2D6 50 pmol/mL and CYP3A4 25 pmol/mL), 0.1M phosphate buffer pH7.4 and test compound (final substrate concentration=5 μM; final DMSO concentration=0.25%) were pre-incubated at 37° C. prior to the addition of NADPH (final concentration=1 mM) to initiate the reaction. Incubations were also performed using control bactosomes (no P450 enzymes present) to reveal any non-enzymatic degradation. The final incubation volume was 25 μL. Compounds known to be metabolised specifically by each CYP450 isoform were used as control compounds.
Each compound was incubated singly for 0, 5, 15, 30 and 45 min with each CYP isoform. The reactions were stopped by the addition of 50 μL methanol containing internal standard at the appropriate time points. The incubation plates were centrifuged at 2500 rpm for 20 min at 4° C. to precipitate the protein. Following protein precipitation, the sample supernatants were combined in cassettes of up to four compounds and analysed using generic LC-MS/MS conditions.
The In peak area ratio (which has been corrected for any loss in the incubations with the control bactosomes) was plotted against time and the gradient of the line determined.
The elimination rate constant (k)=(−gradient)

In the next series the target is CYP3A4 (Homo sapiens (Human), UniProt P08684). The series can be described thus: CYP3A4 inhibition, human liver microsomes, midazolam. It is filed as in vitro ADME. How it is done:
Six test compound concentrations (0.05, 0.25, 0.5, 2.5, 5, 25 μM in DMSO; final DMSO concentration 0.26%) were incubated with human liver microsomes (0.25 mg/mL) and NADPH (1 mM) in the presence of the probe substrate midazolam (2.5 μM) for 5 min at 37° C. The selective CYP3A4 inhibitor, ketoconazole, was screened alongside the test compounds as a positive control.
as §1

A further series deals with A2780. The experiment in a line: Alamar blue cytotoxicity assay A2780. It is filed as cell-based. Conditions: Homo sapiens, 72 hours, read-out: cellular cytotoxicity IC50 A2780. On the procedure: as §2
Another series relates to MESSA. The experiment in a line: Alamar blue cytotoxicity assay MESSA. Format: cell-based. The conditions noted are these: Homo sapiens, MES-SA; 72 hours; read-out: cellular cytotoxicity IC50 MESSA. On the procedure: as §2

CYP3A4, sequence (P08684 whole entry): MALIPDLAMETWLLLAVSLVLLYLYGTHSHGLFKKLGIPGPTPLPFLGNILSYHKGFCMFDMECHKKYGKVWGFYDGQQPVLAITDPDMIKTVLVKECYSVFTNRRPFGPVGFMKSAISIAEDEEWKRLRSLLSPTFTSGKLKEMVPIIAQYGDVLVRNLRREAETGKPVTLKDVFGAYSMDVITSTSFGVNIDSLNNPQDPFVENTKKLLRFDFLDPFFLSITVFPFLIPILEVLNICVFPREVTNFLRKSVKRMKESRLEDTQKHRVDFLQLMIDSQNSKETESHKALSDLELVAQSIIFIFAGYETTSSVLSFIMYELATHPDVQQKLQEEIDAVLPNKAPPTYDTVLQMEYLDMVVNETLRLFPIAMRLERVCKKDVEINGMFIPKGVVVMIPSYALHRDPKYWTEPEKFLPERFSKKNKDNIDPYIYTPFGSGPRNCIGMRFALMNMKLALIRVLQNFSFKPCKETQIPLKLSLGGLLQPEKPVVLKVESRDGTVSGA
T1 sequence (P11712 whole entry): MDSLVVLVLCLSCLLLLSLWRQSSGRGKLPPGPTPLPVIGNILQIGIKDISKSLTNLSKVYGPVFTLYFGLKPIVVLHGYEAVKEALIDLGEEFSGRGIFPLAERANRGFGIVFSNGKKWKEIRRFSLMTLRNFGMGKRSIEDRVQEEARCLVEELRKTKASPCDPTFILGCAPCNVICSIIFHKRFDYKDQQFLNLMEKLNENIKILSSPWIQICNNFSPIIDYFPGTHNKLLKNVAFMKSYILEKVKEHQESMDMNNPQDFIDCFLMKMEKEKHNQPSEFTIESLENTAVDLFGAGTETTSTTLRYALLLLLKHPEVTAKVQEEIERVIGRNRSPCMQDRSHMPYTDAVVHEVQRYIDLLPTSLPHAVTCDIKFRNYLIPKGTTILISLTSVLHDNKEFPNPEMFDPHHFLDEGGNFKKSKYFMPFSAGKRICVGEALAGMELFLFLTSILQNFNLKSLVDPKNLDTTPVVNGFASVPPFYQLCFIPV

With `CC[C@H](Nc1nc(NCc2cnc(C)cc2C)c2ncn(C(C)C)c2n1)[C@@H](C)O` [Compound [1]], the IC50 at CYP2C9 [1] is 23.8 µM; in the series on NCI-H460 it was 500 nM; on CDK2/cyclin A, 90 nM; with MCF7, 260 nM; in the series on MDA-MB-436, 440 nM; with H292, 370 nM. Besides, the results for the IC50 against CYP3A4 (human liver microsomes), in the series with A2780 and in the series on MESSA were 22.5 µM, 410 nM and 160 nM, respectively. In addition, at CYP2C9 [2], the half-life (usually how long it takes for the measured level to halve) at 5 μM was over 45 min. Further, the “CYP3A4-inhibiting concentration as multiple of cellular IC50” value at CYP3A4 is on record as about 60 times. In addition, at CYP3A4, the “concentration up to which CYP3A4 is not inhibited” value is “greater than 20 μM”. In addition, on CYP3A4, the “inhibition of CYP3A4 (in words)” value was “does not significantly inhibit CYP3A4”.
